These results are taken from the SangsterLogP compilation.

SMILES strings stand for the structures.

For orientation: logP means a log measure of how a compound divides between an organic and an aqueous phase. A higher logP goes with a more lipophilic compound. As to `Cc1ccc2c(c1)C(NC(=O)N(CCCl)N=O)c1ccccc1S2` (stereo unspecified), the logP amounted to 5.01.
To `Cc1cc(C)c2c(c1)C(NC(=O)N(CCCl)N=O)c1ccccc1O2` (stereo unspecified) belongs 5.19; to `CCN(CC)CC(=O)NC1c2ccccc2Sc2c(C)cccc21` (stereo unspecified), 4.24; to `Cc1ccc2c(c1)C(NC(=O)N(CCCl)N=O)c1ccccc1O2` (stereo unspecified), 4.65.
To `Cc1cccc2c1Oc1ccccc1C2NC(=O)CCN(C)C` (stereo unspecified) belongs 2.61; to `CCOc1ccc2c(c1)C(NC(=O)N(CCCl)N=O)c1ccccc1O2` (stereo unspecified), 4.86; to `O=NN(CCCl)C(=O)NCC1c2ccccc2Oc2ccccc21`, 4.13.
Turning to `Cc1cccc2c1Oc1ccccc1C2NC(=O)N(CCCl)N=O` (stereo unspecified), the logP was 4.77.
For `O=NN(CCCl)C(=O)NC1c2ccccc2Oc2ccccc21`, the logP worked out at 4.17.
With `COc1ccc2c(c1)C(NC(=O)N(CCCl)N=O)c1ccccc1O2` (stereo unspecified) the figure was 4.48; with `O=NN(CCCl)C(=O)NC1c2ccccc2Sc2ccccc21`, 4.59; with `Cc1cccc2c1Oc1ncccc1C2NC(=O)CN(C)C` (stereo unspecified), 2.19.
As to `O=NN(CCCl)C(=O)NCCSC1c2ccccc2Oc2ccccc21`, the logP stood at 5.
The compound `COc1cccc2c1Oc1ccccc1C2NC(=O)N(CCCl)N=O` (stereo unspecified) showed a logP of 3.68.
To `CCN(CC)CC(=O)NC1c2ccccc2Oc2ccccc21` belongs 3.49; to `Cc1cccc2c1Sc1ccccc1C2NC(=O)N(CCCl)N=O` (stereo unspecified), 5.03.
